# Assay results: US6387956B1, “Methods of treating obsessive-compulsive spectrum disorders” (University of Cincinnati, priority 1999, dated 2002)
# Counter-ions that a name gives are not always drawn.
# Assays:
# [1] = Example 3: weight of a OCD patient during 11 months of tramadol hydrochloride; type: in vivo
# Description: A OCD patient was treated with tramadol hydrochloride for a total of 11 months, during the last month of the study the patient was titrated off the tramadol hydrochloride. The only additional prescribed medication was alendronic acid ((4-amino-1-hydroxybutylidene)bisphosphonic acid) started at week 6 for osteoporosis unrelated to tramadol use. (The patient has a family history of osteoporosis and previous steroid use.) The patient's weight and tramadol hydrochloride doses are set forth in Table 4 below.
# [2] = Weight and appetite during the six week tramadol hydrochloride study; type: in vivo, patients
# Description: (§1) Exclusion criteria for the study included a life-time DSM-IV diagnosis of mania, psychotic disorder, alcohol or substance abuse or dependence, prior history of hypersensitivity to tramadol or any other opioid, a history of seizures, including childhood febrile seizures, and any clinically relevant abnormal laboratory results or clinically unstable medical conditions. […] The patients were not concurrently receiving behavioral therapy.
# (§2) Patients were evaluated using the Yale-Brown Obsessive Compulsive Scale (Y-BOCS), the Hamilton Rating Scale for Depression (HAM-D) and the Clinical Global Impression Scale (CGI). Subsequent to screening, the individuals received a six week treatment with tramadol hydrochloride. The tramadol hydrochloride was initially administered at 50 mg four times a day for the first week. If there was less than a 20% drop in baseline Y-BOCS scores by the end of week one, the tramadol hydrochloride dose was advanced slowly over 1 to 2 weeks to a maximum of 400 mg per day in 3 to 5 divided doses. Weekly measurements with the Y-BOCS, HAM-D and CGI were used to assess responses. Y-BOCS and HAM-D values at the start and end of the trial were compared using the Wilcoxon signed-ranks test.
# Weekly mean ± standard deviation of weight and tramadol doses for the patients are set forth below in Table 2, while weights and tramadol hydrochloride doses for individual patients are set forth in Table 3. For data analysis purposes, when an individual's weight was not available, the weight from the previous week was carried forward.
# OCD = assay: Example 2: case of a person with OCD, Y-BOCS; type: in vivo, patient
# Description: The tramadol hydrochloride therapy was then supplemented with 20 mg per day of fluoxetine, and three weeks later the fluoxetine was increased to 40 mg daily.
# [3] = test system: SRI-treatment refractory OCD; assay: Six week tramadol hydrochloride treatment of SRI-refractory OCD patients, assessed with Y-BOCS, HAM-D and CGI; type: in vivo
# Description: as §1, §2
# The mean ± standard deviation dose of tramadol hydrochloride for the six patients completing at least two weeks was 254±119 mg/day (divided into from 3 to 5 doses). The mean ± standard deviation of baseline and endpoint Y-BOCS, HAM-D and severity of illness CGI and global improvement CGI are set forth below in Table 1. […] The scores for the patient who dropped out in week 6 were carried forward from week 5.
# Tourette's syndrome = assay: Example 4: case of a patient with major depressant disorder and Tourette's syndrome, motor tics; type: in vivo; details: 50 mg twice a day added to bupropion
# Description: A patient with a history of recurrent major depressant disorder was treated with extended release bupropion (1-(3-chlorophenyl)-2-[(1,1-dimethylethyl)amino]-1-[…]), at a total dose of 300 mg per day (200 mg in the morning and 100 mg in the evening). […] The patient also reported a history of purging. […] The patient was diagnosed as having major depressant disorder and Tourette's syndrome.
# The bupropion was supplemented with 50 mg twice a day of tramadol. […] The patient estimated that the number of tics was reduced by about two-thirds after starting the tramadol. The patient's bupropion dose was increased to 400 mg per day (200 mg twice a day), while the tramadol dose was maintained at 50 mg twice a day. The patient was informed the tramadol dose could be increased to 50 mg four times a day if the number of tics increased.
# [4] = during tramadol hydrochloride treatment
smiles,measurement,setting,value
"COc1cccc(C2(O)CCCCC2CN(C)C)c1 (mixture of isomers) [tramadol hydrochloride, (±) cis-2-[(dimethylamino)methyl]-1(3-methoxyphenyl)cyclohexanolhydrochloride]",Weight,"[1]; Month 3, 350 mg/day for 2 weeks, followed by 400 mg/day",127.0 lbs
same,Weight,"[1]; Month 4, 400 mg/day",124.5 lbs
same,Weight,"[1]; Month 5, 400 mg/day",124.75 lbs
same,Weight,"[1]; Month 6, 400 mg/day, alendronic acid started",124.5 lbs
same,Weight,"[1]; Month 7, 400 mg/day",127.0 lbs
same,Weight,"[1]; Month 8, 400 mg/day",125.0 lbs
same,Weight,"[1]; Month 9, 300 mg/day",128.0 lbs
same,Weight,"[1]; Month 10, 150 mg/day",127.5 lbs
same,Weight,"[1]; Month 11, 100 mg/day for 2 weeks, 50 mg/day for 1 week, then discontinued",131.5 lbs
same,Weight,"[1]; Week 2, 300 mg/day, baseline 129.5",128.25 lbs
same,Weight,"[1]; Week 3, 400 mg/day",127.0 lbs
same,Weight,"[1]; Week 4, 400 mg/day",127.25 lbs
same,Weight,"[1]; Week 6, 300 mg/day",126.0 lbs
same,Weight,"[1]; Week 7, 300 mg/day",126.3 lbs
same,Weight,"[1]; Week 8, 300 mg/day",126.0 lbs
same,weight after treatment was discontinued,[1]; after the tramadol hydrochloride treatment was discontinued,regained
same,effect on weight during treatment,[1]; during the tramadol hydrochloride treatment,lost weight
same,"Weight, mean ± SD","[2]; Week 1, seven patients, baseline 173.36 ± 29.58",172.46 ± 29.9 lbs
same,"Weight, mean ± SD","[2]; Week 2, seven patients",170.39 ± 29.1 lbs
same,"Weight, mean ± SD","[2]; Week 3, seven patients",170.5 ± 29.64 lbs
same,"Weight, mean ± SD","[2]; Week 4, seven patients",169.46 ± 28.62 lbs
same,"Weight, mean ± SD","[2]; Week 5, seven patients",169.1 ± 28 lbs
same,"Weight, mean ± SD","[2]; Week 6, seven patients",167.5 ± 26.54 lbs
same,weight lost on average,"[2]; seven patients, six week treatment",5.86 pounds
same,"appetite, patient reported",[2]; six week treatment,decreased appetite
same,time to reported decrease in obsessions and compulsions,OCD; 50 mg twice a day,≤ 24 h
same,Y-BOCS score,"OCD; after one week of treatment, score prior to treatment 26",19
same,"withdrawal Y-BOCS score, average, after withdrawal","[3]; 3 patients stopping tramadol hydrochloride without adding another agent, followed for two weeks",19.7
same,"withdrawal Y-BOCS score, average, at stopping","[3]; 3 patients stopping tramadol hydrochloride without adding another agent, start of withdrawal",14.3
same,adverse event leading to discontinuation,"[3]; another patient, during week 6",panic attack
same,Y-BOCS scores during treatment,[3]; [4],decreased
same,change in HAM-D scores,[3]; [4],no significant change
same,"Global Improvement CGI, mean ± SD, ENDPOINT","[3]; endpoint of six week treatment, six patients, baseline 5.2 ± 0.8, 2=much improved, 3=minimally improved, 4=no change",2.3 ± 1.0
same,"Severity of Illness CGI, mean ± SD, ENDPOINT","[3]; endpoint of six week treatment, six patients, baseline 5.3 ± 1.5, 4=moderately ill, 5=markedly ill, 6=severely ill",4.5 ± 1.2
same,"HAM-D, mean ± SD, ENDPOINT","[3]; endpoint of six week treatment, six patients, baseline 27.7 ± 15.9",28.8 ± 9.8
same,"urges or pressures to perform the compulsions, patient reported",[3]; obsessions persisted in a muted form,diminished
same,adverse event leading to discontinuation,"[3]; one patient, during week 1",nausea and exacerbation of trichotillomania
same,decrease in Y-BOCS scores within the first week,"[3]; three of the seven patients, rapid onset of response",greater than 6 point
same,compulsive urges after the first dose,"[3]; two individuals, first 50 mg dose",alleviation
"COc1cccc([C@]2(O)CCCC[C@H]2CN(C)C)c1 (racemic) [tramadol, (±)cis-2-[(dimethylamino)methyl]-1(3-methoxyphenyl) cyclohexanol]",side effects,Tourette's syndrome,without any side effects
